{"source": "patent US20060286630A1", "about": "“Posh interacting proteins and related methods” (Proteologics, Inc., priority 2003, published 2006)", "key": {"HBV": {"test_system": "HBV", "assay": "Inhibition of HBV production in HepG2.2.15 cells", "assay_type": "cell-based", "settings": "3 μM, treated every 24 hours for 4 days, FIG. 35 lanes 7 and 8", "protocol": "HepG2.2.15 cells were plated on 9 cm dishes and allowed to grow in 8% FCS for 5 days up to 70% confluence. After 5 days, cells were washed twice with PBS and re-supplied with fresh DMEM without FCS. In this medium, cells were treated every 24 hours with the depicted solutions (3 μl solution/11 ml medium) for another 4 days (4 treatments total). After 4 days, medium was collected from each plate, viruses were sedimented and analyzed.\nDetection of HBV proteins was performed essentially as described in Paran, N et al (2001) EMBO J 20(16):4443-4453."}, "HIV-1 [1]": {"test_system": "HIV-1", "settings": "H89 50 μM; HeLa SS6 cells transfected with pNLenv-1; VLPs collected twenty minutes after shift from 20° C. to 37° C.", "description": "HeLa SS6 cells were transfected with pNLenv-1PTAP or pNLenv-1ATAA (L-domain mutant). Eighteen hours post-transfection, cells were transferred to 20° C. for two hours in order to inhibit transport of viral particles from the trans-Golgi (TGN) to the plasma membrane (PM). Subsequently, the PKA inhibitor, H89 (50 μM) (Biosource, Cat. No. PHZ1114) or DMSO were added to the cells and dishes were transferred to 37° C. to initiate transport from the TGN to the PM. Reverse transcriptase activity was assayed from virus-like-particles collected from cell supernatant twenty minutes later."}, "HIV-1 [2]": {"test_system": "HIV-1", "settings": "Cartier et al., 2003, J Biol Chem., 278:35211-9; cited from earlier work"}, "[3]": {"test_system": "Bacterially expressed recombinant maltose-binding-protein (MBP)-hPOSH [MBP: P0AEX9]"}}}
{"molecule": "O=C1C=CC(=O)N1c1ccc(OC(F)(F)C(F)F)c(N2C(=O)C=CC2=O)c1", "note": "[CAS number 14567-55-4]", "values": [{"measurement": "HBV production", "setting": "HBV", "result": "inhibit HBV production"}]}
{"molecule": "Oc1c(Br)cc(Cl)cc1/C=N/c1ccccc1Br", "note": "[CAS number 414908-38-0]", "values": [{"measurement": "HBV production", "setting": "HBV", "result": "inhibit HBV production"}]}
{"molecule": "O=S(=O)(NCCNCC=Cc1ccc(Br)cc1)c1cccc2cnccc12", "note": "[H89, N-[2-((Pbromocinnamyl)amino)ethyl]isoquinolinesulfonamide]", "values": [{"measurement": "RT activity of virus-like particles collected from cell supernatant", "setting": "HIV-1 [1]", "result": "complete inhibition"}, {"measurement": "HIV-1 release from cells", "setting": "HIV-1 [2]", "result": "able to block HIV-1 release from cells"}]}
{"molecule": "PKA catalytic subunit (PKAc)", "values": [{"measurement": "in-vitro phosphorylation of MBP-hPOSH by PKA catalytic subunit, immunoblot", "setting": "[3]", "result": "POSH is phosphorylated by PKA"}]}
